Experimental data as given in patent US20150104806A1, “Parkinson's Disease Biomarker” (University of Dundee, priority 2012, published 2015).

What was measured:
human PINK1 [1] = experiment: Parkin Ser65 phosphorylation in Flp-In T-Rex HEK293 cells expressing PINK1-FLAG after CCCP stimulation; type: cell-based
Method: (§1) Flp-In T-Rex stable cell lines were cultured using DMEM (Dulbecco's modified Eagle's medium) supplemented with 10% FBS (Fetal Bovine Serum), 2 mM L-Glutamine, 1× Pen/Strep, 15 μg/ml of Blasticidin and 100 μg/ml of Hygromycin. Cell transfections of HA-parkin or untagged parkin were performed using the polyethyleneimine (PEI) method (Reed et al, 2006). Cultures were induced to express protein by addition of 0.1 μg/ml of Doxycycline in the medium for 24 hours. To uncouple mitochondria, cells were treated with 10 μM CCCP (Sigma) dissolved in DMSO for the indicated times. An equivalent volume of DMSO was used as a control.
Cells were lysed and fractionated by the indicated buffer and methods: Whole cell lysis using buffer: 50 mM Tris/HCl (pH 7.4), 1 mM EGTA, 1 mM EDTA, 1%(w/v) 1 mM sodium orthovanadate, 10 mM sodium β-glycerophosphate, 50 mM NaF, 5 mM sodium pyrophosphate, 0.27M sucrose, 1 mM benzamidine and 2mMPMSF and 1%(v/v) Triton X-100. Lysates were clarified by centrifugation at 13,000 rpm for 10 min at 4° C. and the supernatant was collected. […] Protein concentration was determined using the Bradford method (Thermo Scientific) with BSA as the standard. […]

human PINK1 [2] = experiment: PINK1 stabilisation, band-shift and Thr257 autophosphorylation in mitochondrial/cytoplasmic extracts of CCCP-treated Flp-In T-Rex HEK293 cells; type: cell-based
Method: as §1
Cells were lysed and fractionated by the indicated buffer and methods: Whole cell lysis using buffer: 50 mM Tris/HCl (pH 7.4), 1 mM EGTA, 1 mM EDTA, 1%(w/v) 1 mM sodium orthovanadate, 10 mM sodium β-glycerophosphate, 50 mM NaF, 5 mM sodium pyrophosphate, 0.27M sucrose, 1 mM benzamidine and 2mMPMSF and 1%(v/v) Triton X-100. Lysates were clarified by centrifugation at 13,000 rpm for 10 min at 4° C. and the supernatant was collected. Mitochondrial fractionation: cells were lysed in buffer containing 250 mM sucrose, 20 mM HEPES, 3 mM EDTA, 1%(w/v) 1 mM sodium orthovanadate, 10 mM sodium β-glycerophosphate, 50 mM NaF, 5 mM sodium pyrophosphate, pH 7.5 and protease inhibitor cocktail (Roche) at 4° C. Cells were disrupted using a glass hand held homogeniser (20 passes) and the lysate was clarified by centrifuging for 10 min at 800 g at 4° C. The supernatant was further centrifuged at 16,600 g for 10 min. The resultant supernatant served as the cytosolic fraction. The pellet containing the mitochondrial fraction was resuspended in buffer containing 1% Triton X-100 and centrifuged at 13,000 rpm for 10 min. This supernatant contained solubilized mitochondrial proteins. All lysates were snap-frozen at −80° C. until use. Protein concentration was determined using the Bradford method (Thermo Scientific) with BSA as the standard.
Immunoprecipitation of recombinant PINK1-FLAG was undertaken by standard methods with anti-FLAG agarose beads (Sigma); of HA-parkin with anti-HA agarose beads (Sigma); and of untagged parkin with anti-parkin antibody (S966C) covalently conjugated to protein G-Sepharose. Immunoprecipitates, as well as cell lysates in SDS sample buffer were subjected to SDS-PAGE and transferred to PVDF membranes. For immunoblotting, membranes were incubated for 60 mins with 1% TBST containing either 5% (wt/vol) skimmed milk powder (for total antibodies) or 5% (wt/vol) BSA (for phospho-specific antibodies). The antibodies were then incubated in the same buffer overnight at 4° C. with the indicated primary antibodies. Sheep total and phospho-specific antibodies were used at a concentration of 1 μg/ml, whereas commercial antibodies were diluted 1000-fold. The incubation with phospho-specific sheep antibodies was performed with the addition of 10 μg/ml of the dephosphopeptide antigen used to raise the antibody. Blots were washed with 0.1% TBST and incubated with secondary HRP-conjugated antibodies in 5% skimmed milk for 60 mins. After repeated washes, the signal was detected with the enhanced chemiluminescence and the X-ray films were processed in a Konica Minolta Medical SRX-101 film processor.
10 mg of mitochondrial extract from Flp-In T-Rex HEK 293 cell lines stably PINK1-FLAG were subjected to immunoprecipitation with anti-FLAG-agarose and then eluted in LDS sample buffer. […]

human PINK1 [3] = experiment: Immunoprecipitation kinase assay of mitochondrial PINK1-FLAG from CCCP-treated HEK293 cells with GST-parkin Ubl (1-108) substrate; type: cell-based
Method: (§2) In assays utilising E. coli expressed wild-type or kinase dead (D359A) MBP-TcPINK1, reactions were set up in a volume of 40 μl, with substrates at 1 μg and kinase at 0.5 μg in 50mMTris-HCl (pH 7.5), 0.1 mM EGTA, 10 mM MgCl2, 2 mM dithiothreitol (DTT) and 0.1 mM [γ-^32P] ATP (approximately 500 cpm/pmol). Assays were incubated at 30° C. with shaking at 1200 rpm and terminated after the indicated time by addition of SDS sample buffer. In mammalian HEK293 immunoprecipitation kinase assays, C-terminal-FLAG tagged wild-type or kinase dead (D384A) PINK1 was immunoprecipitated from 5 mg of mitochondrial enriched extracts using anti-FLAG agarose beads and activity measured in a reaction volume of 40 μl consisting of 50 mM Tris-HCl (pH 7.5), 0.1 mM EGTA, 10 mM MgCl2, 2 mM DTT, 0.1 mM [γ-^32P] ATP (2000cpm/pmol) and 5 μg of indicated substrate. Assays were incubated at 30° C. with shaking at 1200 rpm and terminated after 30 min by addition of SDS sample buffer. For all assays, reaction mixtures were resolved by SDS-PAGE. Proteins were detected by Coomassie staining and gels were imaged using an Epson scanner and dried completely using a gel dryer (Bio-Rad). Incorporation of [γ-32P] ATP into substrates was analysed by autoradiography using Amersham Hyper-Film ECL.

PINK1 = target: T1, PINK1 (Homo sapiens, UniProt Q9BXM7); experiment: Lambda phosphatase assay of immunoprecipitated PINK1 followed by in vitro kinase assay; type: biochemical; details: 50 mM EDTA with 1000U lambda phosphatase
T1 construct: expressed in transfected cells; host or cells: Flp-In T-Rex HEK293; anti-FLAG immunoprecipitate of mitochondrial enriched extract
T1 sequence (Q9BXM7 whole entry): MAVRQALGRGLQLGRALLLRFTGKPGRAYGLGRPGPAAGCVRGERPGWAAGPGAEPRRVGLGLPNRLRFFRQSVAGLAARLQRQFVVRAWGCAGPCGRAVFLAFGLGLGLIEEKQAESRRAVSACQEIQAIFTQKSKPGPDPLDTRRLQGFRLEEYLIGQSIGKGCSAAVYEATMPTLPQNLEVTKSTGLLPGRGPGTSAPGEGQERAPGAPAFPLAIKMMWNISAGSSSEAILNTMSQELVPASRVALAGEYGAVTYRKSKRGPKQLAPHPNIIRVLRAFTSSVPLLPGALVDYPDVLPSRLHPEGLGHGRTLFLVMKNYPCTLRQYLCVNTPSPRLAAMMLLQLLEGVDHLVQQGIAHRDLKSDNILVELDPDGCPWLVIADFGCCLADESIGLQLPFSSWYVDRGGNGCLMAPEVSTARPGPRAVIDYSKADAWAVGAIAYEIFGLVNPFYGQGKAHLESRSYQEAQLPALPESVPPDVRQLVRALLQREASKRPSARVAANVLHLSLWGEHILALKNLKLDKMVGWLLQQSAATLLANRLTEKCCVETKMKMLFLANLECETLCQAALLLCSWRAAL
Method: Wild-type PINK1 was incubated with or without 1000U of Lambda phosphatase (NEB) in a reaction volume of 40 μl consisting of 50 mM Tris pH 7.5, 1 mM MnCl2 and 2 mM DTT. In addition wild-type PINK1 was treated with 1000U of lambda phosphatase in the presence of 50 mM EDTA. Assays were incubated at 30° C. for 30 min with shaking at 1200 rpm. The beads were washed three times in 50 mM Tris pH7.5, 0.1 mM EGTA and then utilized in an in vitro kinase assay with GST-parkin UBL (1-108) as the substrate. Samples were further analyzed as described above.

TcPINK1 = target: T2, TcPINK1 (Tribolium castaneum, UniProt D6WMX4); experiment: In vitro phosphorylation of substrates by TcPINK1; type: biochemical, insect; details: time course, GST-parkin, [γ-32P] ATP
T2 construct: full-length MBP-fusion of wild type TcPINK1 (1-570); made in house; host or cells: E. coli BL21 Codon+
T2 sequence (D6WMX4 1-570): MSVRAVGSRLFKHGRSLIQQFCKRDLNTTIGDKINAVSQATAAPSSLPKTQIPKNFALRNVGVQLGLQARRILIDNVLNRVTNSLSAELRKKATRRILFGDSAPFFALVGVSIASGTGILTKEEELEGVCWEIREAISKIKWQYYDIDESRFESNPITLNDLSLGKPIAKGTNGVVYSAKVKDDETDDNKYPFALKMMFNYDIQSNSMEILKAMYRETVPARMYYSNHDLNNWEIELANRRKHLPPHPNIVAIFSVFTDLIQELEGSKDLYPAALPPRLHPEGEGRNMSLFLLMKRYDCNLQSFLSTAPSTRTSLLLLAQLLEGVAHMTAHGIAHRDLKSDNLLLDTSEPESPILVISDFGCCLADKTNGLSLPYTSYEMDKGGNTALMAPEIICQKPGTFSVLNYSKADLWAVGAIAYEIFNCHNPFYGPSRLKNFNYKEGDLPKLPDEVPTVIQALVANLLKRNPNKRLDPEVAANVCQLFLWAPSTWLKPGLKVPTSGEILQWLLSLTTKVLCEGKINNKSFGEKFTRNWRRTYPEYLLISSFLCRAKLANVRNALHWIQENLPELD
Method: as §2

## N#CC(C#N)=NNc1cccc(Cl)c1 [CCCP, carbonyl cyanide m-chlorophenyl hydrazone]
Human PINK1 [1]; 10 μM CCCP time course, phospho-Ser65 antibody
  time at which parkin Ser65 phosphorylation occurs: 5 min
Human PINK1 [1]; 10 μM CCCP, 3 hours, HEK293 cells expressing human wild-type PINK1, phospho-specific antibody
  parkin phosphorylation at Ser65: induced
Human PINK1 [2]; 3 hour CCCP treatment
  levels of full-length PINK1 associated with the mitochondria: marked increase
Human PINK1 [2]; CCCP 3 hours, wild type but not kinase-inactive PINK1, phosphospecific Thr257 antibody
  phosphorylation of PINK1 at Thr257: markedly stimulated
Human PINK1 [2]; CCCP time course, cytoplasmic extracts
  time to loss of the cleaved form of PINK1 in the cytosol: ≤ 5 min
Human PINK1 [2]; CCCP time course, mitochondrial extracts
  time to significant stabilisation of full-length PINK1 at the mitochondria: ≤ 5 min
Human PINK1 [2]; CCCP time course, mitochondrial extracts, sustained for up to 3 hours
  time to maximal stabilisation of full-length PINK1 at the mitochondria: ≤ 40 min
Human PINK1 [3]; CCCP time course
  time of PINK1 activation (immunoprecipitated mitochondrial PINK1 phosphorylating parkin in vitro): around 40 mins
  time of maximal PINK1 activation (immunoprecipitated mitochondrial PINK1 phosphorylating parkin in vitro): 3 h
Human PINK1 [3]; PINK1 isolated from CCCP-treated vs non-treated cells
  activation of human PINK1 (ability to phosphorylate parkin Ubl domain at Ser65 in vitro): inducing the activation

## O=C(O)CN(CCN(CC(=O)O)CC(=O)O)CC(=O)O [EDTA]
PINK1
  effect on lambda phosphatase-induced dephosphorylation of Thr257 and loss of ability of PINK1 to phosphorylate parkin: prevented

B1: parkin: human parkin protein expressed in E. coli, substrate of TcPINK1 (protein, UniProt O60260 1-465, looked up)
E3 ubiquitin-protein ligase …: MIVFVRFNSSHGFPVEVDSDTSIFQLKEVVAKRQGVPADQLRVIFAGKELRNDWTVQNCDLDQQSIVHIVQRPWRKGQEMNATGGDDPRNAAGGCEREPQSLTRVDLSSSVLPGDSVGLAVILHTDSRKDSPPAGSPAGRSIYNSFYVYCKGPCQRVQPGKLRVQCSTCRQATLTLTQGPSCWDDVLIPNRMSGECQSPHCPGTSAEFFFKCGAHPTSDKETSVALHLIATNSRNITCITCTDVRSPVLVFQCNSRHVICLDCFHLYCVTRLNDRQFVHDPQLGYSLPCVAGCPNSLIKELHHFRILGEEQYNRYQQYGAEECVLQMGGVLCPRPGCGAGLLPEPDQRKVTCEGGNGLGCGFAFCRECKEAYHEGECSAVFEASGTTTQAYRVDERAAEQARWEAASKETIKKTTKPCPRCHVPVEKNGGCMHMKCPQPQCRLEWCWNCGCEWNRVCMGDHWFDV
modifications: GST tag
notes: human parkin protein expressed in E. coli, substrate of TcPINK1
TcPINK1
  maximal stoichiometry of phosphorylation by TcPINK1: −0.25 moles of 32P-phosphate per mol
